Measurements from US20250332119A1, “NOVEL ANTI-INFLAMMATORY COMPOSITION AND USE THEREOF” (ASK CO., LTD., priority 2023, published 2025).

Key:
[1] = tested on: RAW264.7 (mouse macrophage); test: NO production in LPS-induced mouse macrophages (Griess reagent); format: cell-based; conditions: RAW264.7, LPS 1 μg/mL, 24 hours, sample pretreatment 30 minutes, non-cytotoxic concentration range
Method: (§1) To evaluate the inhibitory ability against nitric oxide and PGE2 production induced by LPS (lipopolysaccharide), mouse macrophages were used to assess the effect on the production of nitric oxide (NO) and prostaglandin E2 (PGE2). The cells used in the experiment were RAW264.7 (mouse macrophage), which were cultured in Dulbecco's modified Eagle's medium (DMEM, Invitrogen) supplemented with 10% fetal bovine serum (FBS, Lonza) and 50 μg/mL streptomycin (Sigma) at 37° C. in 5% CO2.
Specifically, the cells were seeded into 96-well plates at a density of 1× 10^5 cells/well and incubated at 37° C. in a 5% CO2 incubator for 24 hours. The culture medium was removed from the cultured cells, and the medium was replaced with a fresh medium containing the test sample and the cells pre-incubated at 37° C. under 5% CO2 for 30 minutes. Following the 30-minute incubation, LPS was added to a final concentration of 1 μg/mL, and the cells were incubated at 37° C. in a 5% CO2 incubator for 24 hours. After incubation, 100 μL of the supernatant was transferred to a new 96-well plate and mixed with an equal volume of a 1:1 mixture of Griess reagent A and B, then 100 μL aliquot of the resulting mixture was dispensed into each well. Immediately after treatment with Griess reagent, absorbance was measured at 540 nm using a microplate reader. The NO production rate (%) of macrophages was calculated using Equation 1 below.

[2] = tested on: human breast carcinoma cells (MCF-7); conditions: Planta Med. 2011; 77 (2): 164-8; cited from earlier work
[3] = tested on: RAW264.7 (mouse macrophage); test: PGE2 production in LPS-induced mouse macrophages (ELISA); format: cell-based; conditions: RAW264.7, LPS, 24 hours
Method: as §1
In addition, to evaluate the production of PGE2, a procedure similar to that described above was followed. The procedures for treating the cells with the sample and LPS after cell culture were identical. Subsequently, 100 μL aliquots of the supernatant were collected and transferred to a new 96-well plate, and diluted 10- to 20-fold with culture medium. In the NSB (Non-specific binding) wells of the Anti-Mouse IgG plate, 100 μL of culture medium was added. Then, 100 μL each of the standard and diluted supernatant were added to the respective wells, followed by 50 μL of blue PGE2-AP conjugate added to all wells except the blank well. 50 μL of culture medium was added to the NSB wells, and 50 μL of yellow PGE2 antibody was added to all wells except the blank and NSB wells. The plate was then shaken using an orbital shaker at 500 rpm for 2 hours at room temperature (22-25° C.). After 2 hours, the contents of the plate were discarded, and the wells were washed three times with 400 μL of washing buffer. Then, 200 μL of substrate solution was added to each well and the plate was incubated at room temperature (22-25° C.) for 45 minutes. After incubation, 50 μL of stop solution was added to each well, and the absorbance was immediately measured at 405 nm using a microplate reader. The PGE2 production rate (%) of macrophages was calculated using Equations 2 and 3 below.

[4] = tested on: skeletal muscle cells; conditions: J Biotechnol. 2023; 368:53-59; cited from earlier work
[5] = tested on: TNF-α; test: TNF-α mRNA expression by Realtime qRT-PCR in LPS-induced macrophages; format: cell-based, mouse; conditions: RAW264.7, LPS 24 hours
Method: (§2) To evaluate the inhibitory ability against inflammatory cytokines induced by LPS (lipopolysaccharide), mouse macrophages were used to assess the effect on the production of IL-1α and TNF-α, which are the early-stage inflammatory molecules. The cells used in the experiment were RAW264.7 (Mouse macrophage), which were cultured at 37° C. under 5% CO2 in Dulbecco's modified Eagle's medium (DMEM, Invitrogen) supplemented with 10% fetal bovine serum (FBS, Lonza) and 50 μg/mL streptomycin (Sigma).
(§3) Specifically, the cells were seeded into 6-well plates at a density of 1×10^6 cells/well and cultured at 37° C. in a 5% CO2 incubator for 24 hours. After removing the culture medium, the cells were replaced with fresh medium containing the sample and pre-incubated at 37° C. under 5% CO2 for 30 minutes. Following pretreatment with the sample for 30 minutes, the cells were exposed with LPS for 24 hours to induce an inflammatory response. As a control, cells treated with LPS alone, without sample treatment, were used.
(§4) Total RNA in cells was then extracted from cultured cells using Trizol reagent (Invitrogen, USA) for RNA analysis. The purity and integrity of the RNA were confirmed by measuring the A260 nm/A280 nm ratio, and RNA yield was measured by absorbance at 260 nm.
(§5) For cDNA synthesis, 3 μg of total RNA was mixed with Oligo dT 15 (500 ng/μL) primer, dNTP (10 mM), RTase inhibitor (40 U/μL), and Powerscript II RTase (Clontech, USA), followed by primer annealing at 25° C. for 10 minutes, cDNA synthesis at 42° C. for 60 minutes, and RTase denaturation at 95° C. for 5 minutes. PCR was performed to amplify IL-1α, TNF-α, and GAPDH from cDNA by mixing 3 μL of cDNA, 5 μL of 10×taq polymerase buffer, 2 μL of 10 mM dNTP, 2 μL each of 10 pmol primers, and 0.5 μL of taq polymerase, followed by the addition of distilled water to a final volume of 50 μL.
(§6) The primer sequences used are shown in Table 1, and the PCR process was carried out using the Real-time qRT PCR method with the LightCycler® 96 System (Roche Diagnostics).

[6] = tested on: IL-1α; test: IL-1α mRNA expression by Realtime qRT-PCR in LPS-induced macrophages; format: cell-based, mouse; conditions: RAW264.7, LPS 24 hours
Method: as §2, §3, §4, §5, §6

[7] = tested on: macrophages; conditions: Food Funct. 2017; 8 (11): 4150-4158; cited from earlier work
[8] = tested on: TNF-α, IL-6, IL-1B, and NOS2; conditions: Food Funct. 2017; 8 (11): 4150-4158; cited from earlier work

| Compound | NO production [1] | NO production ([1]; listed as araliadiol) | growth of human breast carcinoma cells (MCF-7) [2] | PGE2 production [3] | PGE2 production ([3]; listed as araliadiol) | glucose uptake by skeletal muscle cells [4] | Relative TNF-α mRNA expression [5] | Relative TNF-α mRNA expression ([5]; listed as araliadiol) | Relative IL-1α mRNA expression [6] | Relative IL-1α mRNA expression ([6]; listed as araliadiol) | NO production in macrophages [7] | expression of proinflammatory cytokines [8] | PGE2 production ([3]; listed as linoleic acid) |
| --- | --- | --- | --- | --- | --- | --- | --- | --- | --- | --- | --- | --- | --- |
| C=CC(O)C#CC#CC(O)/C=C\CCCCC (centres unmarked) [Assay-10, (9Z)-1,9-pentadecadiene-4,6-diyne-3,8-diol] | relatively high NO reduction at the lowest concentrations | higher NO reduction rate than linoleic acid | inhibit the growth of human breast carcinoma cells (MCF-7) | decrease in PGE2 production with increasing concentration | decreased PGE2 production with increasing concentration | effectively enhance glucose uptake by skeletal muscle cells | tendency toward decreased expression of both IL-1α and TNF-α mRNA with increasing concentration | relatively more reduced by araliadiol compared to linoleic acid | tendency toward decreased expression of both IL-1α and TNF-α mRNA with increasing concentration | relatively more reduced by araliadiol compared to linoleic acid |  |  |  |
| CCCCC/C=C\C/C=C\CCCCCCCC(=O)O [Assay-5, linoleic acid] | relatively high NO reduction at the lowest concentrations |  |  | increase in PGE2 production with increasing concentration |  |  | did not inhibit TNF-α mRNA expression |  | tendency toward decreased IL-1α mRNA expression with increasing concentration |  | inhibiting NO production in macrophages | suppressing the expression of proinflammatory cytokines including TNF-α, IL-6, IL-1B, and NOS2 | increased the production of the inflammatory factor PGE2 as its concentration increased |
